# Source: publication PMC12748266, “Testing antimicrobial peptides inhibiting protein synthesis in living E. coli and K. pneumoniae using bio-orthogonal non-canonical amino-acid tagging” (Frontiers in Microbiology, 2025)
# Where two headings read alike, the source gives them in different places. Marks after values point to notes of the source that are not given here.
# Columns and labels:
# [1] = tested on: K. pneumoniae ATCC 700603; test: microbe, parasite or virus in culture; format: cell-based, Klebsiella pneumoniae; conditions: for MIC: 18 h, 37 °C, mode of at least three experiments
# Experimental: […] […] Serially two-fold dilution (1:1) were performed across subsequent wells to a final volume of 50 μL. […] […] The plates were sealed with parafilm to minimize evaporation and incubated at 37 °C for 18 h. The minimum inhibitory concentration (MIC) was visually determined as the lowest peptide concentration in a well with no visible bacterial growth. Data are reported as the mode of at least three independent experiments.
# [2] = tested on: K. pneumoniae ATCC 700603; test: Cell membrane permeabilization, propidium iodide flow cytometry; format: cell-based, Klebsiella pneumoniae; conditions: compound at its MIC, 40 min, 5 × 10^6 CFU/mL, supplemented M9; mean of n = 3
# Experimental: (§1) An overnight culture of E. coli ATCC 25922, or of K. pneumoniae ATCC 700603, prepared as described above, was diluted to a final concentration of 5 × 10^6 CFU/mL and allowed to adjust for 30 min at 37 °C under shaking. Membrane permeabilization of bacteria was then assessed by incubating bacteria at 37 °C, in a final volume of 1 mL, with varying concentrations of each peptide or antibiotic used for the BONCAT assay. 5 min before the ending of the selected incubation time (40 min), propidium iodide probe was added to the samples to a final concentration of 10 μg/mL before analysis using a flow cytometer. A positive control consisted of E. coli cells dehydrated with ethanol (as described above), while untreated cells were used as negative control. The fluorescence of untreated cells was used to establish the gating for positive PI-stained cells. Fixed bacterial cells, subjected to the click chemistry reaction to link the Alexa Fluor azide 488 probe, were analysed by flow cytometry and, among the gates-selected ones, only those that tested positive for Propidium Iodide, and thus permeabilized, were considered for the calculation of the mean fluorescence intensity (MFI) of the Alexa Fluor azide 488.
# (§2) Samples were analyzed by an Attune NxT® (ThermoFisher) equipped with a blue laser (488 nm) and photomultiplier tubes (PMTs) BL1 (525/50) and BL3 (695/40) to collect fluorescence. All parameters were set in logarithmic scale and the signals were recorded as Area. Forward scattering (FSC) was set to 300 mV, side scattering (SSC) to 350 mV and thresholds to 0.2 for FSC and 0.5 for SSC. The compensation matrix was performed according to the tool software. Hierarchical gates and acquisition flow rate (200 μL/min) were set to avoid coincident events. The files were saved as FCS 3.1 and analysed by FCS Express De Novo software v7. Flow cytometry data are presented as means ± SD from three independent experiments (n = 3).
# [3] = tested on: K. pneumoniae ATCC 700603; test: BONCAT: HPG incorporation into newly synthesized proteins, flow cytometry; format: cell-based, Klebsiella pneumoniae; conditions: compound at MIC, 10 min pre-incubation then 30 min HPG; untreated = 100%; mean, n ≥ 3
# Experimental: (§3) We used a modified protocol from [Lindivat et al. (2020)]. Briefly, overnight cultures of E. coli ATCC 25922 or K. pneumoniae ATCC 700603, prepared as described above, were diluted to a final concentration of 5×10^6 CFU/mL and allowed to adjust for 30 min at 37 °C. The culture was then incubated at 37 °C in the dark for 10 or 30 min in the presence or absence of each peptide or antibiotic at various concentrations, with a final volume of 1 mL. At this point, only in certain specified experimental assays, the compounds were removed from the supernatant by centrifugation (16,000 × g for 5 min) and bacteria were washed and resuspended in fresh supplemented M9 medium. Then, 32 μL of a 500 μM homopropargylglycine (HPG) solution were added to each sample, resulting in a final concentration of 16 μM in a finale volume of 1 mL. Also included in each assay were two untreated controls containing only bacteria and bacteria treated with 16 μM HPG alone, respectively. All samples were then incubated at 37 °C in the dark for 30 min. After incubation, samples were washed once with 1X filtered Phosphate Buffered Saline (PBS) (centrifuged at 16,000 x g for 5 min) and resuspended in PBS. After washing, samples were fixed with formaldehyde (Sigma Aldrich, USA) to a final concentration of 3% in 1 mL for 1 h at 25 °C. Subsequently, the samples were centrifuged at 16,000 x g for 5 min and resuspended in 1 mL of PBS. If not analysed immediately, the fixed samples were stored at 4 °C prior to performing the click chemistry reaction. Samples were centrifugated at 16,000 x g for 5 min and bacteria cells were dehydrated by ethanol that was added sequentially to achieve a final concentration of 50% (v/v) (3 min of incubation), 80% (v/v) (3 min of incubation), and 95% (v/v) (3 min of incubation). After dehydration, the samples were centrifugated (16,000 × g, 5 min) and resuspended in PBS. For cell analysis by SDS-PAGE, the following variations were implemented: bacterial cells were diluted in supplemented M9 medium to a final density of ~ 1 × 10^9 CFU/mL, and HPG was added to the samples at a final concentration of 160 μM. Bacteria were incubated with HPG for 0, 15, 30, 60, or 120 min at 37 °C in the dark.
# The click reaction was carried out according to [Rostovtsev et al. (2002)]. 15 μL of a pre-mix solution (prepared as described above) were added to each sample containing fixed bacteria that had incorporated HPG (30 μL of pre-mix solution in case of samples prepared for SDS-PAGE analysis), resulting in the following final concentrations in each sample: 0.1 mM copper sulfate, 0.5 mM Tris (3-hydroxypropyltriazolylmethyl)amine (THPTA), and 2.5 μM Alexa Fluor azide 488. Additionally, 50 μL of freshly prepared 100 mM sodium ascorbate and 50 μL of 100 mM aminoguanidine were added (100 μL in case of samples prepared for SDS-PAGE analysis), bringing the final volume to 1 mL. The samples were gently inverted once to mix and incubated for 30 min in the dark at 25 °C. […]
# An overnight culture of E. coli ATCC 25922, or of K. pneumoniae ATCC 700603, prepared as described above, was diluted to a final concentration of 5 × 10^6 CFU/mL and allowed to adjust for 30 min at 37 °C under shaking. Membrane permeabilization of bacteria was then assessed by incubating bacteria at 37 °C, in a final volume of 1 mL, with varying concentrations of each peptide or antibiotic used for the BONCAT assay. […] The fluorescence of untreated cells was used to establish the gating for positive PI-stained cells. […]
# E. coli ATCC 25922 [4] = test: microbe, parasite or virus in culture; format: cell-based, Escherichia coli; conditions: for MIC: 18 h, 37 °C, mode of at least three experiments
# Experimental: […] Each peptide, diluted at a starting concentration of 128 μM in supplemented M9 medium was added to the first column of wells of a 96-well round-bottom microplate (Sarstedt, Milan, Italy). Serially two-fold dilution (1:1) were performed across subsequent wells to a final volume of 50 μL. 50 μL of bacterial suspension (1 × 10^7 CFU/mL) were then added to each well, to a final bacterial concentration in each well to 5 × 10^6 CFU/mL per well. Untreated bacterial culture was used as growth control, while 100 μL of uninoculated supplemented M9 medium was used to verify the sterility of the medium. The plates were sealed with parafilm to minimize evaporation and incubated at 37 °C for 18 h. The minimum inhibitory concentration (MIC) was visually determined as the lowest peptide concentration in a well with no visible bacterial growth. Data are reported as the mode of at least three independent experiments.
# E. coli ATCC 25922 [5] = test: Cell membrane permeabilization, propidium iodide flow cytometry; format: cell-based, Escherichia coli; conditions: for Membrane permeabilization (% PI +cells): compound at its MIC, 40 min, 5 × 10^6 CFU/mL, supplemented M9, mean of n = 3
# Experimental: as §1, with “Membrane” for “An overnight culture of E. coli ATCC 25922, or of K. pneumoniae ATCC 700603, prepared as described above, was diluted to a final concentration of 5 × 10^6 CFU/mL and allowed to adjust for 30 min at 37 °C under shaking. Membrane”
# as §2
# E. coli ATCC 25922 [6] = test: BONCAT: HPG incorporation into newly synthesized proteins, flow cytometry; format: cell-based, Escherichia coli; conditions: compound at MIC; for Fluorescence Intensity (% of Control): 10 min pre-incubation then 30 min HPG, untreated = 100%, mean, n ≥ 3; for Decrease in fluorescence compared to untreated bacteria: 40 min total incubation (10 min + 30 min HPG)
# Experimental: as §3
# The click reaction was carried out according to [Rostovtsev et al. (2002)]. 15 μL of a pre-mix solution (prepared as described above) were added to each sample containing fixed bacteria that had incorporated HPG (30 μL of pre-mix solution in case of samples prepared for SDS-PAGE analysis), resulting in the following final concentrations in each sample: 0.1 mM copper sulfate, 0.5 mM Tris (3-hydroxypropyltriazolylmethyl)amine (THPTA), and 2.5 μM Alexa Fluor azide 488. Additionally, 50 μL of freshly prepared 100 mM sodium ascorbate and 50 μL of 100 mM aminoguanidine were added (100 μL in case of samples prepared for SDS-PAGE analysis), bringing the final volume to 1 mL. The samples were gently inverted once to mix and incubated for 30 min in the dark at 25 °C. Finally, each sample was washed with PBS once (centrifuged at 16,000 × g for 5 min) and resuspended in 1 mL PBS.
# as §1, with “Fixed bacterial cells, subjected to the click chemistry reaction to link the Alexa Fluor azide 488 probe, were analysed by flow cytometry and, among the gates-selected ones, only those that tested positive for Propidium Iodide, and thus permeabilized, were considered for the calculation of the mean fluorescence intensity (MFI) of the Alexa Fluor azide 488.” left out
# E. coli ATCC 25922 [7] = test: Post-antibiotic effect (PAE), growth kinetics after washout; format: cell-based, Escherichia coli; conditions: 30 min treatment at MIC, OD600 every hour for 18 h in MHB, mean ± SD, n = 3
# Experimental: An overnight culture of E. coli ATCC 25922, prepared as described above, was diluted to a final concentration of 5 × 10^6 CFU/mL and then incubated at 37 °C for 30 min in the presence or absence of each peptide or antibiotic at various concentrations, with a final volume of 1 mL. To measure the post-antibiotic effect (PAE) of antimicrobials, the compounds were removed from the supernatant by centrifugation (16,000 × g for 5 min) and bacteria were washed and resuspended in 1 mL of fresh supplemented MHB medium, to promote faster growth visible as increased absorbance. 200 μL of each sample was then transferred to a 96-well round-bottom microplate (Sarstedt, Milan, Italy), which was then placed in a Nanoquant Infinite-M200Pro plate reader with stable temperature at 37 °C. Each sample was surrounded by water-filled wells to reduce its own evaporation. Optical density at 600 nm was then recorded for each sample every hour for up to 18 h. PAE was calculated according to [Holfeld et al. (2018)] as the difference between the time needed for a cell culture incubated with an antibiotic substance to reach half-maximum absorbance of the control culture and the time that the control culture needed to reach half-maximum absorbance of the stationary phase. According to this definition, the PAE of each compound (expressed as time) was calculated based on the OD₆₀₀ value of its respective replicate, which corresponded to half of the maximum absorbance reached by the control culture in the stationary phase (at 18 h). The mean PAE values (PAE in hours) of each compound, were obtained by averaging the times from the three independent experiments.
# [8] = Mueller Hinton, 2,5x10^5 CFU/mL
molecule,measurement,setting,value
"CN(C)[C@@H]1C(O)=C(C(N)=O)C(=O)[C@@]2(O)C(O)=C3C(=O)c4c(O)cccc4[C@@](C)(O)[C@H]3C[C@@H]12 [TET, tetracycline]",MIC,"[1]; Klebsiella pneumoniae, ATCC700603, supplemented M9 medium, 5 × 10^6 CFU/mL, visual",32 µM
same,Membrane permeabilization (% PI +cells),[2],<1%
same,Fluorescence Intensity (% of Control),[3],37 % of Control
Colistin,Fold increase in MIC on 20-fold increase in cell density,"E. coli ATCC 25922 [4]; MHB, 5×10^6 vs 2,5×10^5 CFU/well",4-8 fold
same,MIC,E. coli ATCC 25922 [4]; [8],"0,5 * µM"
same,MIC,"E. coli ATCC 25922 [4]; Mueller Hinton, 5x10^6 CFU/mL, read-out: MIC",4 µM
same,Fold increase in MIC in M9 medium compared to MHB,E. coli ATCC 25922 [4]; same bacterial concentration,2-4 fold
same,MIC,"E. coli ATCC 25922 [4]; supplemented M9 medium, 5 × 10^6 CFU/mL, visual, read-out: MIC",16 µM
same,MIC,[1]; [8],1 µM
same,"Fold increase in MIC, BONCAT conditions vs standard conditions","[1]; supplemented M9 5×10^6 CFU/well vs MHB 2,5×10^5 CFU/well",16 fold
same,MIC,"[1]; supplemented M9 medium, 5 × 10^6 CFU/mL, visual",16 µM
same,Permeabilized cells (PI+),"E. coli ATCC 25922 [5]; colistin 0,5 µM (MIC) at 2,5x10^5 CFU/mL, 40 minutes of incubation",around 50%
same,Membrane permeabilization (% PI +cells),E. coli ATCC 25922 [5],1%
same,Membrane permeabilization (% PI +cells),E. coli ATCC 25922 [5]; listed as Colistin,1%
same,Membrane permeabilization (% PI +cells),E. coli ATCC 25922 [5]; listed as colistin,no membrane permeabilization
same,Fluorescence Intensity (% of Control),E. coli ATCC 25922 [6],87 % of Control
same,Decrease in fluorescence compared to untreated bacteria,E. coli ATCC 25922 [6],nor decreased bacterial fluorescence
CCO [Ethanol],Membrane permeabilization (% PI +cells),E. coli ATCC 25922 [5],78%
same,Membrane permeabilization (% PI +cells),E. coli ATCC 25922 [5]; listed as EtOH,78%
same,Membrane permeabilization (% PI +cells),[2],96%
"CCn1cc(C(=O)O)c(=O)c2ccc(C)nc21 [NDX, Nalidixic Acid]",MIC,"E. coli ATCC 25922 [4]; Escherichia coli, ATCC25922, 18 h, supplemented M9 medium, 5 × 10^6 CFU/mL, visual, read-out: MIC",16 µM
same,Membrane permeabilization (% PI +cells),E. coli ATCC 25922 [5],<1%
same,Fluorescence Intensity (% of Control),E. coli ATCC 25922 [6],107 % of Control
same,Decrease in fluorescence compared to untreated bacteria,E. coli ATCC 25922 [6],did not affect fluorescence intensity
same,PAE,E. coli ATCC 25922 [7],0.8 ± 0.4 h
